Measurements: US9216973B2, “Insecticidal compounds” (Syngenta Participations AG, priority 2008, dated 2015)

Columns and labels:
[1] = test system: Heliothis virescens (Tobacco budworm); assay: Heliothis virescens egg test on artificial diet; type: in vivo; conditions: for pest or weed control at 200 ppm: 96 h, 200 ppm (concentration in well 18 ppm), eggs 0-24 h old on artificial diet, egg mortality, larval mortality, growth regulation after 4 days, read-out: control of Heliothis virescens; for effect on mortality, feeding behavior, or growth regulation: same protocol, 200 ppm
Experimental: (§1) This Example illustrates the insecticidal and acaricidal properties of compounds of formula (I). The tests were performed as follows:
(§2) Cotton leaf discs were placed on agar in a 24-well microtiter plate and sprayed with test solutions at an application rate of 200 ppm. After drying, the leaf discs were infested with 5 L1 larvae. The samples were checked for mortality, feeding behavior, and growth regulation 3 days after treatment (DAT). The following compound gave at least 80% control of Spodoptera littoralis: A1, A2, A5, A6, A7, A8, A10, A11, A12, A13, A14, A15, A16, A17, A18, A19, A21, A22, A23, A24, A25, A30, A31, A32, A33, A34, A35, A39, A40, A41 A42, A43, A44, A45, A46, A47, A48, A49, A50, A51, A53, A54, A55, A59, A60, A61, A62. Heliothis virescens (Tobacco budworm): Eggs (0-24 h old) were placed in 24-well microtiter plate on artificial diet and treated with test solutions at an application rate of 200 ppm (concentration in well 18 ppm) by pipetting. After an incubation period of 4 days, samples were checked for egg mortality, larval mortality, and growth regulation. The following compound gave at least 80% control of Heliothis virescens: A1, A2, A3, A4, A5, A6, A7, A8, A10, A11, A12, A13, A14, A15, A16, A18, A19, A21, A22, A24, A25, A30, A31, A32, A33, A34, A35, A37, A38, A39, A40, A42, A43, A44, A45, A46, A47, A48, A49, A50, A51, A55, AA57, A58, A59, A60, A61, A62. Plutella xylostella (Diamond back moth): 24-well microtiter plate (MTP) with artificial diet was treated with test solutions at an application rate of 200 ppm (concentration in well 18 ppm) by pipetting. After drying, the MTP's were infested with L2 larvae (7-12 per well). After an incubation period of 6 days, samples were checked for larval mortality and growth regulation. The following compound gave at least 80% control of Plutella xylostella: A1, A2, A5, A6, A7, A8, A9, A10, A11, A12, A13, A14, A15, A16, A17, A18, A19, A20, A21, A22, A24, A25, A30, A31, A32, A33, A34, A35, A37, A38, A39, A40, A42, A43, A44, A45, A46, A47, A48, A49, A50, A51, A52, A53, A54, A55, A57, A58, A59, A60, A61, A62, B3. Diabrotica balteata (Corn root worm): A 24-well microtiter plate (MTP) with artificial diet was treated with test solutions at an application rate of 200 ppm (concentration in well 18 ppm) by pipetting. After drying, the MTP's were infested with L2 larvae (6-10 per well). After an incubation period of 5 days, samples were checked for larval mortality and growth regulation. The following compound gave at least 80% control of Diabrotica balteata: A1, A2, A5, A6, A7, A10, A11, A12, A13, A14, A15, A16, A17, A18, A19, A21, A22, A24, A25, A30, A31, A32, A33, A34, A35, A38, A39, A40, A42, A43, A44, A45, A46, A47, A48, A49, A50, A59, A60, A61, A62. Thrips tabaci (Onion thrips): Sunflower leaf discs were placed on agar in a 24-well microtiter plate and sprayed with test solutions at an application rate of 200 ppm. After drying, the leaf discs were infested with an […] population of mixed ages. After an incubation period of 7 days, samples were checked for mortality. The following compounds gave at least 80% control of Thrips tabaci: A1, A2, A5, A6, A7, A8, A10, A12, A13, A14, A15, A16, A17, A18, A19, A21, A24, A25, A30, A31, A32, A33, A34, A35, A39, A42, A43, A44, A45, A46, A47, A48, A49, A50, A51, A53, A54, A57, A58, A59, A60, A61, A62. Tetranychus urticae (Two-spotted spider mite): Bean leaf discs on agar in 24-well microtiter plates were sprayed with test solutions at an application rate of 200 ppm. After drying, the leaf discs are infested with mite populations of mixed ages. 8 days later, discs are checked for egg mortality, larval mortality, and adult mortality. The following compound gave at least 80% control of Tetranychus urticae: A1, A2, A4, A5, A6, A7, A8, A10, A11, A12, A13, A14, A15, A16, A17, A18, A19, A20, A21, A22, A30, A31, A32, A33, A34, A35, A39, A40, A41, A42, A43, A44, A45, A46, A47, A48, A49, A50, A51, A53, A54, A55, A57, A59, A60, A61, A62.

[2] = test system: Plutella xylostella (Diamond back moth); assay: Plutella xylostella larvae test on artificial diet; type: in vivo; conditions: for pest or weed control at 200 ppm: 144 h, 200 ppm (concentration in well 18 ppm), artificial diet, L2 larvae, larval mortality and growth regulation after 6 days; for effect on mortality, feeding behavior, or growth regulation: same protocol, 200 ppm
Experimental: as §1, §2

SMILES	pest or weed control at 200 ppm [1] [%]	pest or weed control at 200 ppm [2] [%]	effect on mortality, feeding behavior, or growth regulation [1]	effect on mortality, feeding behavior, or growth regulation [2]
Cc1cc(C2=NOC(c3cc(Cl)cc(Cl)c3)(C(F)(F)F)C2Br)ccc1C(=O)NC1C[S+]([O-])C1 (stereo not shown) [A7]	≥ 80	≥ 80	–	–
Cc1cc(C2=NCC(c3cc(Cl)cc(Cl)c3)(C(F)(F)F)C2)ccc1C(=O)NC1C[S+]([O-])C1 (stereo not shown) [A48]	≥ 80	≥ 80	–	–
Cc1cc(C2=NOC(c3cc(Cl)cc(Cl)c3)(C(F)(F)F)C2F)ccc1C(=O)NC1CS(=O)(=O)C1 (stereo not shown) [A59]	≥ 80	≥ 80	–	–
Cc1cc(C2=NOC(c3cc(Cl)cc(Cl)c3)(C(F)(F)F)C2F)ccc1C(=O)NC1(C)CSC1 (stereo not shown) [A60]	≥ 80	≥ 80	–	–
Cc1cc(C2=NOC(c3cc(Cl)cc(Cl)c3)(C(F)(F)F)C2O)ccc1C(=O)NC1C[S+]([O-])C1 (stereo not shown) [A53]	–	≥ 80	–	–
Cc1cc(C2=NOC(c3cc(Cl)cc(Cl)c3)(C(F)(F)F)C2F)ccc1C(=O)NC1CSC1 (stereo not shown) [A61]	≥ 80	≥ 80	–	–
O=C(NC1CS(=O)(=O)C1)c1ccc(C2=NOC(c3cc(Cl)cc(Cl)c3)(C(F)(F)F)C2)c2nsnc12 (stereo not shown) [A22]	≥ 80	≥ 80	–	–
Cc1cc(C2=NN(C)C(c3cc(Cl)cc(Cl)c3)(C(F)(F)F)C2)ccc1C(=O)NC1CSC1 (stereo not shown) [A14]	≥ 80	≥ 80	–	–
Cc1cc(C2=NOC(c3cc(Cl)cc(Cl)c3)(C(F)(F)F)C2Cl)ccc1C(=O)NC1(C)CSC1 (stereo not shown) [A33]	≥ 80	≥ 80	–	–
Cc1cc(C2=NOC(c3cc(Cl)cc(Cl)c3)(C(F)(F)F)C2O)ccc1C(=O)NC1CSC1 (stereo not shown) [A54]	–	≥ 80	–	–
Cc1nc2c(C3=NOC(c4cc(Cl)cc(Cl)c4)(C(F)(F)F)C3)ccc(C(=O)NC3(C)CSC3)c2o1 (stereo not shown) [A27]	–	–	little or no effect	little or no effect
CC1(NC(=O)c2ccc(C3=NOC(c4cc(Cl)cc(Cl)c4)(C(F)(F)F)C3)c3ccccc23)CSC1 (stereo not shown) [A1]	≥ 80	≥ 80	–	–
O=C(NC1CS(=O)(=O)C1)c1ccc(C2=NOC(c3cc(Cl)cc(Cl)c3)(C(F)(F)F)C2Br)c2ccccc12 (stereo not shown) [A42]	≥ 80	≥ 80	–	–
O=C(NC1CS(=O)(=O)C1)c1ccc(C2=NOC(c3cc(Cl)cc(Cl)c3)(C(F)(F)F)C2)c2ccccc12 (stereo not shown) [A15]	≥ 80	≥ 80	–	–
Cc1cc(C2=NOC(c3cc(Cl)cc(Cl)c3)(C(F)(F)F)C2Br)ccc1C(=O)NC1(C)CSC1 (stereo not shown) [A5]	≥ 80	≥ 80	–	–
Cc1cc(C2=NOC(c3cc(Cl)cc(Cl)c3)(C(F)(F)F)C2Cl)ccc1C(=O)NC1CS(=O)(=O)C1 (stereo not shown) [A32]	≥ 80	≥ 80	–	–
Cc1cc(C2=NOC(c3cc(Cl)cc(Cl)c3)(C(F)(F)F)C2O)ccc1C(=O)NC1CS(=O)(=O)C1 (stereo not shown) [A51]	≥ 80	≥ 80	–	–
Cc1cc(C2=NOC(c3cc(Cl)cc(Cl)c3)(C(F)(F)F)C2Cl)ccc1C(=O)NC1C[S+]([O-])C1 (stereo not shown) [A34]	≥ 80	≥ 80	–	–

SMILES	pest or weed control at 200 ppm [1] [%]	pest or weed control at 200 ppm [2] [%]	effect on mortality, feeding behavior, or growth regulation [1]	effect on mortality, feeding behavior, or growth regulation [2]
Cc1cc(C2CC(c3cc(Cl)cc(Cl)c3)(C(F)(F)F)ON2C)ccc1C(=O)NC1C[S+]([O-])C1 (stereo not shown) [A18]	≥ 80	≥ 80	–	–
Cc1cc(C2=NN(C)C(c3cc(Cl)cc(Cl)c3)(C(F)(F)F)C2)ccc1C(=O)NC1C[S+]([O-])C1 (stereo not shown) [A13]	≥ 80	≥ 80	–	–
Cc1cc(C2CC(c3cc(Cl)cc(Cl)c3)(C(F)(F)F)ON2C)ccc1C(=O)NC1CSC1 (stereo not shown) [A21]	≥ 80	≥ 80	–	–
Cc1cc(C2=NOC(c3cc(Cl)cc(Cl)c3)(C(F)(F)F)O2)ccc1C(=O)NC1CSC1 (stereo not shown) [A17]	–	≥ 80	–	–
Cc1cc(C2=NOC(c3cc(Cl)cc(Cl)c3)(C(F)(F)F)/C2=N/O)ccc1C(=O)NC1(C)CSC1 (stereo not shown) [A56]	–	–	little or no effect	little or no effect
Cc1cc(C2=NN(C)C(c3cc(Cl)cc(Cl)c3)(C(F)(F)F)C2)ccc1C(=O)NC1(C)CSC1 (stereo not shown) [A12]	≥ 80	≥ 80	–	–
Cc1cc(C2=NCC(c3cc(Cl)cc(Cl)c3)(C(F)(F)F)C2)ccc1C(=O)NC1(C)CSC1 (stereo not shown) [A47]	≥ 80	≥ 80	–	–
Cc1nc2c(C3=NOC(c4cc(Cl)cc(Cl)c4)(C(F)(F)F)C3)ccc(C(=O)NC3C[S+]([O-])C3)c2o1 (stereo not shown) [A28]	–	–	little or no effect	little or no effect
Cc1cc(N2CC(c3cc(Cl)cc(Cl)c3)(C(F)(F)F)OC2=O)ccc1C(=O)NC1CSC1 (stereo not shown) [A11]	≥ 80	≥ 80	–	–
O=C(NC1CSC1)c1ccc(C2=NOC(c3cc(Cl)cc(Cl)c3)(C(F)(F)F)C2)c2ccccc12 (stereo not shown) [A2]	≥ 80	≥ 80	–	–
O=C(NC1C[S+]([O-])C1)c1ccc(C2=NOC(c3cc(Cl)cc(Cl)c3)(C(F)(F)F)C2)c2ccccc12 (stereo not shown) [A16]	≥ 80	≥ 80	–	–
Cc1nc2c(C3=NOC(c4cc(Cl)cc(Cl)c4)(C(F)(F)F)C3)ccc(C(=O)NC3CS(=O)(=O)C3)c2o1 (stereo not shown) [A26]	–	–	little or no effect	little or no effect
CC1(NC(=O)c2cccc3c(C4=NOC(c5cc(Cl)cc(Cl)c5)(C(F)(F)F)C4)cccc23)CSC1 (stereo not shown) [A36]	–	–	little or no effect	little or no effect
Cc1cc(C2=NOC(c3cc(Cl)cc(Cl)c3)(C(F)(F)F)C2Br)ccc1C(=O)NC1CSC1 (stereo not shown) [A6]	≥ 80	≥ 80	–	–
Cc1cc(C2=NCC(c3cc(Cl)cc(Cl)c3)(C(F)(F)F)C2)ccc1C(=O)NC1CSC1 (stereo not shown) [A49]	≥ 80	≥ 80	–	–
Cc1cc(C2=NCC(c3cc(Cl)cc(Cl)c3)(C(F)(F)F)C2)ccc1C(=O)NC1CS(=O)(=O)C1 (stereo not shown) [A46]	≥ 80	≥ 80	–	–
Cc1cc(C2CC(c3cc(Cl)cc(Cl)c3)(C(F)(F)F)ON2C)ccc1C(=O)NC1CS(=O)(=O)C1 (stereo not shown) [A19]	≥ 80	≥ 80	–	–
